# pIC50: −log10 of the molar value.
# Assay: Antiviral activity was evaluated by Reverse transcriptase activity in cells acutely infected with HIV-1
row,pIC50,SMILES
1,6.60,CCCCCCCCCC(=O)NC1=NN(C)c2ncnc3c2c1cn3C1O[C@H](CO)[C@@H](O)[C@H]1O (stereo partly drawn)
2,6.10,CCCCCCCCC(=O)NC1=NN(C)c2ncnc3c2c1cn3C1O[C@H](CO)[C@@H](O)[C@H]1O (stereo partly drawn)
3,6.00,CCCCCCCCCCCC(=O)NC1=NN(C)c2ncnc3c2c1cn3C1O[C@H](CO)[C@@H](O)[C@H]1O (stereo partly drawn)
4,7.00,CCCCCCCC(=O)NC1=NN(C)c2ncnc3c2c1cn3C1O[C@H](CO)[C@@H](O)[C@H]1O (stereo partly drawn)

# Assay: Antiviral activity was evaluated by RT (reverse transcriptase) activity in cells acutely infected with HIV-1
row,pIC50,SMILES
1,6.46,CCCCCC(=O)NC1=NN(C)c2ncnc3c2c1cn3C1O[C@H](CO)[C@@H](O)[C@H]1O (stereo partly drawn)
2,6.30,CCCC(=O)NC1=NN(C)c2ncnc3c2c1cn3C1O[C@H](CO)[C@@H](O)[C@H]1O (stereo partly drawn)
3,6.10,CCCCC(=O)NC1=NN(C)c2ncnc3c2c1cn3C1O[C@H](CO)[C@@H](O)[C@H]1O (stereo partly drawn)
4,7.46,CCCCCCC(=O)NC1=NN(C)c2ncnc3c2c1cn3C1O[C@H](CO)[C@@H](O)[C@H]1O (stereo partly drawn)

# More lines, now with the values behind:
row,SMILES,pIC50
1,CN1N=C(NC(=O)c2ccccc2)c2cn(C3O[C@H](CO)[C@@H](O)[C@H]3O)c3ncnc1c23 (stereo partly drawn),< 4.00
2,CC(C)C(=O)NC1=NN(C)c2ncnc3c2c1cn3C1O[C@H](CO)[C@@H](O)[C@H]1O (stereo partly drawn),5.10
3,CCC(=O)NC1=NN(C)c2ncnc3c2c1cn3C1O[C@H](CO)[C@@H](O)[C@H]1O (stereo partly drawn),5.08
4,CC(=O)NC1=NN(C)c2ncnc3c2c1cn3C1O[C@H](CO)[C@@H](O)[C@H]1O (stereo partly drawn),5.17
5,CN1N=C(NC(=O)C(C)(C)C)c2cn(C3O[C@H](CO)[C@@H](O)[C@H]3O)c3ncnc1c23 (stereo partly drawn),< 4.00

# — BindingDB's records for doi:10.1021/jm990236h (University of Michigan, 2000)
